Data reported in patent US20230201217A1 (priority 2019, published 2023).
Values joined by “and” are separate entries in the source; they are usually repeats but may differ in a detail not shown here. Equal values may be shown once. Read-outs that look alike come from different tables or passages of the source.

Assays:
[1] = Phase 1 first-in-human study, pharmacokinetics in plasma; conditions: for percentage of the total drug related material: 4 mg twice at 0 and +10 hours; for Cmax: Average
Procedure: Fourteen normal, healthy volunteers were enrolled in the study. Seven volunteers were treated in the first cohort (3 placebo, 4 received a single dose of 20 mg of 18-MC) and seven in the second cohort (2 placebo, 5 received 8 mg as 4 mg doses of 18-MC administered at 0 and plus 10 hours). For Cohort A, volunteers were monitored in a hospital unit for 2 days (36 hours) days, and were followed up for safety at Days 3, 7 and 30. For Cohort B, volunteers were monitored in a hospital unit for 2 days (36 hours), and were followed up for safety at Days 3, 4, 7 and 30.
This study was designed as a randomized, double-blind, placebo-controlled, single-center Phase 1 first-in-human clinical trial. After screening, volunteers were admitted to the hospital for 36 hours. […] Study article was initiated on Day 1 and volunteers were discharged on Day 2. Cohort A were seen as outpatients on Days 3, 7 and 30. Cohort B were seen as outpatients on Days 3, 4, 7 and 30. 14 subjects were in the study, 5 male and 9 female.
For Cohort A, pharmacokinetic samples were obtained at baseline and at 0.5, 1.0, 2.0, 6.0, 12.0, 24, 36 hours, and 7 days post dose.
Samples underwent two analyses: A research assay (LG/MS/TOF) developed by MicroConstants, Inc., was used to collect the raw data. The first analysis was to quantitate 18-MG and the known metabolites M2, M4 and M5 (using standard curves included in the run). The second analysis compared the peak heights of 18-MG and all the metabolites that could be identified in terms of relative peak height (M1 through M10, and P1-P3).

[2] = molecular target: T1, rat α3β4 nicotinic acetylcholine receptor (nAChR) (Rattus norvegicus, UniProt P04757+P12392); test: cell-based; conditions: for Persistent Inhibition at 1 sec: 1 second after removal of drug; for koff: HEK293
T1 construct: expressed in transfected cells; host or cells: HEK 293 (ATCC CRL1573), transient, Lipofectamine 2000

mouse liver = test: In vivo comet assay; conditions: positive control
Procedure: The comet assay (alkaline single cell gel electrophoresis) is a microgel electrophoretic technique that detects DNA damage in individual cells. DNA damage can be expressed as DNA single strand breaks, double strand breaks, and strand breaks induced by alkali labile sites. […] For this study, the liver was selected as the tissue for evaluation, since this tissue is expected to contain high concentrations of parent drug and metabolites following oral administration.
Male mice were administered oral doses of 0 (vehicle=5% dextrose), 50, 90 and 120 mg/kg/day by gavage according to the table below. Animals in groups 1-4 were dosed on three consecutive days and euthanized 3 to 4 hours after the last dose by CO2 inhalation. A separate group of animals were dosed with methyl methanesulfonate (MMS) which served as a positive control. Immediately following euthanasia, the liver was removed and collected from each animal.
In this study, comet tail migration, % tail DNA (also known as % tail intensity) and tail moment were determined for each animal/treatment group and served as parameters of DNA damage.

[3] = tested on: isolated rabbit Purkinje fibers; test: Action potential duration in rabbit cardiac Purkinje fibers; conditions: 50 μM, positive control
Procedure: The in vitro effect of 18-MC on the cardiac action potential was evaluated in isolated rabbit Purkinje fibers (FIG. 13). […] Fibers with resting potentials more negative than −80 mV and normal action potential morphology (APD90≥150 ms) were used in the study. Fibers were stimulated continuously at BCL of 1 second for at least 5 minutes. At the end of this period, baseline control APD rate dependence was measured using stimulus pulse trains consisting of approximately 50 pulses at BCL of 1 and 0.5 seconds. After returning to BCL of 1 second, 18-MC (or dl-sotalol) at the lowest concentration was applied for at least 20 minutes to allow equilibration, and the stimulus trains repeated. […] The average responses from the last five recorded action potentials from each stimulus train were analyzed for each test condition.
Electrophysiological recordings were performed with four nominal concentrations of 18-MC (0.3, 1, 3, and 10 μM) added sequentially to four preparations at two stimulus intervals (basic cycle lengths of 1 s and 0.5 s). The effects of 18-MC on action potential parameters were compared to time-matched vehicle control sequences.

[4] = both, human, plasma, po, 4 mg, cohort B, 4 mg PO at 0 and +10 hours
[5] = both, human, plasma, po, 20 mg, cohort A, 20 mg PO single dose
[6] = cohort B, 4 mg PO at 0 and +10 hours

T1 sequence (P04757 26-499): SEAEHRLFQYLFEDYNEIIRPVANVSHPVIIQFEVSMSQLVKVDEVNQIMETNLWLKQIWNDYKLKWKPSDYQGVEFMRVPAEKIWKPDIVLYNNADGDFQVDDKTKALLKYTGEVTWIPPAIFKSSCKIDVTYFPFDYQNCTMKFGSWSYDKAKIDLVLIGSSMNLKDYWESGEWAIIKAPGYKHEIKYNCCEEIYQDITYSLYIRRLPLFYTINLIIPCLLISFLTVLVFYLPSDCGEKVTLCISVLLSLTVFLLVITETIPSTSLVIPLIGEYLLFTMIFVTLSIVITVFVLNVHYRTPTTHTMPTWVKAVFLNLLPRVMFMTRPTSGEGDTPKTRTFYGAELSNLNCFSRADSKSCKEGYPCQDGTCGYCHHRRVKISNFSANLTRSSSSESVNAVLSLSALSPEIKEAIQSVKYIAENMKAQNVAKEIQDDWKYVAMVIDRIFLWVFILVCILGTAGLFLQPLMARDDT
T1 sequence (P12392 21-495): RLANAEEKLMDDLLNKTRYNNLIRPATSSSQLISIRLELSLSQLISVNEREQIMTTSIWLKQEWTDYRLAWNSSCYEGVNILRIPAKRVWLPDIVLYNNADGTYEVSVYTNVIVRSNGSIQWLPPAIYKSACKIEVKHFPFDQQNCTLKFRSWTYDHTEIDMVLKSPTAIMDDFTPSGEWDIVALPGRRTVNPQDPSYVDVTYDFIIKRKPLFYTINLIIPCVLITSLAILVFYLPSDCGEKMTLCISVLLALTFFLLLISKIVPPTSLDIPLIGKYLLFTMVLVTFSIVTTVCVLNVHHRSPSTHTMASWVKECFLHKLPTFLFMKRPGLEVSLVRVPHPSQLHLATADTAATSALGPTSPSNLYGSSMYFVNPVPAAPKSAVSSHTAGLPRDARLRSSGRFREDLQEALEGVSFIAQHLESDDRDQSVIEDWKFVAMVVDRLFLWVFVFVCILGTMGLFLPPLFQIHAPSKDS

SMILES | percentage of the total drug related material [1] | AUC ([1]; both, human, plasma, po, 4 mg) [ng·h/mL] | AUC(0-inf) ([1]; both, human, plasma, po, 4 mg) [ng·h/mL] | Tmax ([1]; both, human, plasma, po, 4 mg) [h] | half-life ([1]; both, human, plasma, po, 4 mg) [h] | Cmax [1, 4] [ng/mL] | AUC ([1]; both, human, plasma, po, 20 mg) [ng·h/mL] | AUC(0-inf) ([1]; both, human, plasma, po, 20 mg) [ng·h/mL] | Tmax ([1]; both, human, plasma, po, 20 mg) [h] | half-life ([1]; both, human, plasma, po, 20 mg) [h] | Cmax [1, 5] [ng/mL] | AUCall, Max ([1]; cohort A, 20 mg PO single dose) [ng·h/mL] | AUCall, Min ([1]; cohort A, 20 mg PO single dose) [ng·h/mL] | Cmax, Max ([1]; cohort A, 20 mg PO single dose) [ng/mL] | Cmax, Min ([1]; cohort A, 20 mg PO single dose) [ng/mL] | Half-Life, Max ([1]; cohort A, 20 mg PO single dose) [h] | Half-Life, Min ([1]; cohort A, 20 mg PO single dose) [h] | Tmax, Max ([1]; cohort A, 20 mg PO single dose) [h] | Tmax, Min ([1]; cohort A, 20 mg PO single dose) [h] | AUCall, Max [1, 6] [ng·h/mL] | also measured
COC(=O)C12CC3CC(CCO[C@@H]4O[C@H](C(=O)O)[C@@H](O)[C@H](O)[C@H]4O)C1N(C=Cc1c2[nH]c2ccccc12)C3 (stereo partly drawn) [P10, (2S,3S,4S,5R,6R)-3,4,5-trihydroxy-6-(2-(6-(methoxycarbonyl)-6,6a,7,8,9,10-hexahydro-5H-6,9-methanopyrido[1′,2′:1,2]azepino[4,5-b]indol-7-yl)ethoxy)tetrahydro-2H-pyran-2-carboxylic acid] | greater than 10% |  |  |  |  |  |  |  |  |  |  |  |  |  |  |  |  |  |  |  | Tmax ([1]; both, human, plasma, oral, 4 mg): 6 to 10 h
COCCC1CC2CN3C=Cc4c([nH]c5ccc(O)cc45)C(C(=O)OC)(C2)C13 (stereo not drawn) [M8, methyl 2-hydroxy-7-(2-methoxyethyl)-7,8,9,10-tetrahydro-5H-6,9-methanopyrido[1′,2′:1,2]azepino[4,5-b]indole-6(6aH)-carboxylate] | less than 10% |  |  |  |  |  |  |  |  |  |  |  |  |  |  |  |  |  |  |  | 
COC(=O)C12CC3CC(CCO)C1N(C=Cc1c2[nH]c2ccccc12)C3 (stereo not drawn) [M2, methyl7-(2-hydroxyethyl)-7,8,9,10-tetrahydro-5H-6,9-methanopyrido[1′,2′:1,2]azepino[4,5-b]indole-6(6aH)-carboxylate] |  | 391 | 420 | 11.8 | 44.1 | 11 | 563 | 678 | 1.4 | 14.4 | 41 | 684 | 504 | 62 | 27 | 19.0 | 11.1 | 2.0 | 0.5 | 500 | AUCall, Min [1, 6]: 287 ng·h/mL; Cmax, Max [1, 6]: 12 ng/mL; Cmax, Min [1, 6]: 8 ng/mL; Half-Life, Max [1, 6]: 97.8 h; Half-Life, Min [1, 6]: 18.7 h; Tmax, Max [1, 6]: 12 h; Tmax, Min [1, 6]: 11 h
COCCC1CC2CN3C=Cc4c([nH]c5ccccc45)C(C(=O)OC)(C2)C13 (stereo not drawn) [M4, methyl7-(2-methoxyethyl)-7,8,9,10-tetrahydro-5H-6,9-methanopyrido[1′,2′:1,2]azepino[4,5-b]indole-6(6aH)-carboxylate] | about 40% | 1650 | 1650 | 7.3 | 22.1 | 72 | 2690 | 2800 | 1.4 | 7.9 | 347 | 3925 | 1897 | 528 | 242 | 9.3 | 6.3 | 2.0 | 0.5 | 1941 | IC50 [2]: 2.6 µM; Ipeak [2]: 23 ± 2% of ACh and 42 ± 3% of ACh; Max Inhibition 20-30 μM [2]: 88 ± 3%; fold less potent than the parent 18-MC HCl [2]: approximately 3.5 fold; kon [2]: 4.5 and 4.5 ± 0.4 s−1; reduction of peak ACh-evoked currents [2]: 68±2% and 86±2%; Ipeak ([2]; 30 μM): 14 ± 2% of ACh; Iss ([2]; 30 μM): 40 ± 6% of peak; τdecay ([2]; 30 μM): 205 ± 40 ms; Persistent Inhibition at 1 sec [2]: 21±3%; koff [2]: 2.5 s⁻¹; Tmax ([1]; cohort A or B, generally): ½; AUCall, Min [1, 6]: 1304 ng·h/mL; Cmax, Average [1, 6]: 72.3 ng/mL; Cmax, Max [1, 6]: 82 ng/mL; Cmax, Min [1, 6]: 65 ng/mL; Half-Life, Max [1, 6]: 34.3 h; Half-Life, Min [1, 6]: 13.2 h; Tmax, Max [1, 6]: 12 h; Tmax, Min [1, 6]: 0.5 h
COS(C)(=O)=O [MMS, methyl methanesulfonate, reference compound] |  |  |  |  |  |  |  |  |  |  |  |  |  |  |  |  |  |  |  |  | comet parameters (mouse liver): produced the expected increases
COC(=O)C12CC3CC(CC(=O)O)C1N(CCc1c2[nH]c2ccccc12)C3 (stereo not drawn) [M5, 2-(6-(methoxycarbonyl)-6,6a,7,8,9,10,12,13-octahydro-5H-6,9-methanopyrido[1′,2′:1,2]azepino[4,5-b]indol-7-yl)acetic acid] |  | 163 | 185 | 2.9 | 46.8 | 6 | 210 | 395 | 0.8 | 29.6 | 25 | 359 | 105 | 38 | 12 | 43.4 | 16.2 | 1.0 | 0.5 | 208 | IC50 [2]: 57 µM; Ipeak [2]: 70 ± 4% of ACh; Iss [2]: 62 ± 4% of peak; Max Inhibition 20-30 μM [2]: 36 ± 5 %; fold less potent than the parent 18-MC HCl [2]: ~76 fold; kon [2]: 2.2 and 2.2 ± 0.4 s−1; τdecay [2]: 554 ± 32 ms; Persistent Inhibition at 1 sec [2]: 2±2%; koff [2]: 6.2 s⁻¹; Tmax ([1]; cohort A or B, generally): ½; AUCall, Min [1, 6]: 104 ng·h/mL; Cmax, Max [1, 6]: 9 ng/mL; Cmax, Min [1, 6]: 3 ng/mL; Half-Life, Max [1, 6]: 74.7 h; Half-Life, Min [1, 6]: 19.8 h; Tmax, Max [1, 6]: 11 h; Tmax, Min [1, 6]: 0.5 h
CC(C)NCC(O)c1ccc(NS(C)(=O)=O)cc1 (racemic) [dl-Sotalol, reference compound] |  |  |  |  |  |  |  |  |  |  |  |  |  |  |  |  |  |  |  |  | APD60 prolongation [3]: ~40%; APD90 prolongation [3]: ~40%
